Tests used:
[1] = Sensory evaluation of p-cresol odor masking in p-cresol-containing grated raw ginger; settings: for p-Cresol Odor Intensity: grated ginger with 600 ppb p-cresol, average score of 9 panelists, scale 0-4
Protocol: To commercially available grated raw ginger, p-cresol adjusted to a concentration of 0.1% with 95% ethanol was added to a concentration of 600 ppb in the ginger. To this p-cresol-containing ginger, 1-oxacycloheptadecan-8-en-2-one was added at the concentrations presented in Table 16 to confirm the p-cresol odor intensity (masking effect) and the influence on the ginger flavor of each sample.
Nine skilled panelists were selected to perform the same sensory evaluation as in Example 1. The results are as in Table 16, presenting the average score of the evaluation results for each panelist.

[2] = Sensory evaluation of p-cresol odor masking in p-cresol-containing lemon dressing; settings: lemon dressing with 500 ppb p-cresol; for p-Cresol Odor Intensity: average score of 9 panelists, scale 0-4
Protocol: To a commercially available lemon dressing, p-cresol adjusted to a concentration of 0.1% with 95% ethanol was added to 500 ppb in the lemon dressing. To this p-cresol-containing lemon dressing, l-oxacycloheptadecan-8-en-2-one was added at the concentrations presented in Table 18 to confirm the p-cresol odor intensity (masking effect) and the influence on the citrus flavor of each sample.
Nine skilled panelists were selected to perform the same sensory evaluation as in Example 1. The results are as in Table 18, presenting the average score of the evaluation results for each panelist.

[3] = Sensory evaluation of p-cresol odor masking in p-cresol-containing citrus-flavored beverage; settings: for p-Cresol Odor Intensity: beverage with 50 ppb p-cresol, average score of 7 panelists, scale 0-4
olfactory receptor OR9Q2 = biological target: T1, olfactory receptor OR9Q2 (Homo sapiens, UniProt Q8NGE9); assay: OR9Q2 response inhibitory effect for p-cresol, luciferase reporter gene assay; type: cell-based; settings: p-cresol 100 µM mixed with various concentrations of compound; cells expressing OR9Q2; ratio of Fold Increase value (FIGS. 1 to 11)
T1 construct: 20 N-terminal amino acid residues of bovine rhodopsin (Rho tag); expressed in transfected cells; host or cells: HEK293T
T1 sequence (Q8NGE9 1-314): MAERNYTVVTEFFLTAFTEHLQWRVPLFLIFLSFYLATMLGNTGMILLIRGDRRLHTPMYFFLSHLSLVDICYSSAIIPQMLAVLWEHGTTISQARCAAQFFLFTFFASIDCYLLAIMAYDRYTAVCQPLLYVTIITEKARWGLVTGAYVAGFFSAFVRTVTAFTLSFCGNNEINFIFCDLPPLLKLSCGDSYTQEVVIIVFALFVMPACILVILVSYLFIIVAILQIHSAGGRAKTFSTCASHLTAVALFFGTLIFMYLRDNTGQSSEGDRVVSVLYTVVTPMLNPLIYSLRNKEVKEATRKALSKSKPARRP

[4] = grated raw ginger with 600 ppb p-cresol
[5] = citrus-flavored beverage with 50 ppb p-cresol

SMILES: O=C1CCCCCCCCCCCCCCO1 [Pentalide, pentalide]
- p-Cresol Odor Intensity ([1]; 1 ppb added): 1.3 points
- p-Cresol Odor Intensity ([1]; 1 ppt added): 3.3 points
- p-Cresol Odor Intensity ([1]; 10 ppb added): 1.1 points
- p-Cresol Odor Intensity ([1]; 10 ppt added): 2.7 points
- p-Cresol Odor Intensity ([1]; 100 ppt added): 1.6 points
- concentration at which the compound masks the p-cresol odor and does not affect the ginger flavor, lower limit [1, 4]: ≥ 10 ppt
- concentration at which the compound masks the p-cresol odor and does not affect the ginger flavor, upper limit [1, 4]: ≤ 1 ppb
- p-Cresol Odor Intensity ([2]; 1 ppb added): 1.1 points
- p-Cresol Odor Intensity ([2]; 1 ppt added): 3.6 points
- p-Cresol Odor Intensity ([2]; 10 ppb added): 0.9 points
- p-Cresol Odor Intensity ([2]; 10 ppt added): 2.8 points
- p-Cresol Odor Intensity ([2]; 100 ppt added): 1.9 points
- concentration at which the compound masks the p-cresol odor and does not affect the citrus flavor, lower limit [2]: ≥ 10 ppt
- concentration at which the compound masks the p-cresol odor and does not affect the citrus flavor, upper limit [2]: ≤ 10 ppb
- p-Cresol Odor Intensity ([3]; 0.01 ppt added): 3.6 points
- p-Cresol Odor Intensity ([3]; 0.1 ppt added): 2.9 points
- p-Cresol Odor Intensity ([3]; 1 ppb added): 1.4 points
- p-Cresol Odor Intensity ([3]; 1 ppt added): 2.6 points
- p-Cresol Odor Intensity ([3]; 10 ppb added): 1.0 points
- p-Cresol Odor Intensity ([3]; 10 ppt added): 2.0 points
- p-Cresol Odor Intensity ([3]; 100 ppb added): 0.6 points
- p-Cresol Odor Intensity ([3]; 100 ppt added): 1.9 points
- concentration at which the compound masks the p-cresol odor and does not affect the citrus flavor, lower limit [3, 5]: ≥ 0.1 ppt
- concentration at which the compound masks the p-cresol odor and does not affect the citrus flavor, upper limit [3, 5]: ≤ 1 ppb
- effect of suppressing the response of OR9Q2 to p-cresol (olfactory receptor OR9Q2): suppressing the response of OR9Q2 to p-cresol in a concentration-dependent manner

Reference: patent publication US20230180804A1, “FLAVOR COMPOSITION, AND FOOD AND BEVERAGE” (TAKASAGO INTERNATIONAL CORPORATION, priority 2020, published 2023)
